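Assay format: 96-well plates, 48-hour exposure. GI50 = concentration required for 50% inhibition of growth. The concentration for full growth arrest is given as TGI.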
What was measured:
Test in all cases: growth of human tumour cells (NCI), 48 h
SW-620 colon = tested on: SW-620 colon
MOLT-4 leukemia = tested on: MOLT-4 leukemia
ACHN renal = tested on: ACHN renal
LXFL 529 NSCLC = tested on: LXFL 529 NSCLC
SK-MEL-5 melanoma = tested on: SK-MEL-5 melanoma
UO-31 renal = tested on: UO-31 renal
SNB-19 CNS = tested on: SNB-19 CNS
OVCAR-8 ovarian = tested on: OVCAR-8 ovarian
U251 CNS = tested on: U251 CNS
DLD-1 colon = tested on: DLD-1 colon
SNB-78 CNS = tested on: SNB-78 CNS
M14 melanoma = tested on: M14 melanoma
SF-295 CNS = tested on: SF-295 CNS
SK-MEL-28 melanoma = tested on: SK-MEL-28 melanoma
SNB-75 CNS = tested on: SNB-75 CNS
HOP-18 NSCLC = tested on: HOP-18 NSCLC
M19-MEL melanoma = tested on: M19-MEL melanoma
HT29 colon = tested on: HT29 colon
XF 498 CNS = tested on: XF 498 CNS
LOX IMVI melanoma = tested on: LOX IMVI melanoma
HOP-62 NSCLC = tested on: HOP-62 NSCLC
SF-539 CNS = tested on: SF-539 CNS
UACC-62 melanoma = tested on: UACC-62 melanoma
SK-OV-3 ovarian = tested on: SK-OV-3 ovarian
DMS 273 small cell lung = tested on: DMS 273 small cell lung
KM12 colon = tested on: KM12 colon
RXF 393 renal = tested on: RXF 393 renal
SN12C renal = tested on: SN12C renal
IGROV1 ovarian = tested on: IGROV1 ovarian
SK-MEL-2 melanoma = tested on: SK-MEL-2 melanoma
HCT-116 colon = tested on: HCT-116 colon
NCI-H23 lung = tested on: NCI-H23 lung
A498 renal = tested on: A498 renal
K-562 leukemia = tested on: K-562 leukemia
HCT-15 colon = tested on: HCT-15 colon
SF-268 CNS = tested on: SF-268 CNS
MALME-3M melanoma = tested on: MALME-3M melanoma
UACC-257 melanoma = tested on: UACC-257 melanoma
HOP-92 NSCLC = tested on: HOP-92 NSCLC
CAKI-1 renal = tested on: CAKI-1 renal
OVCAR-3 ovarian = tested on: OVCAR-3 ovarian
NCI-H460 lung = tested on: NCI-H460 lung
RPMI-8226 leukemia = tested on: RPMI-8226 leukemia
A549 NSCLC = tested on: A549 NSCLC
NCI-H226 lung = tested on: NCI-H226 lung
DMS 114 small cell lung = tested on: DMS 114 small cell lung
CCRF-CEM leukemia = tested on: CCRF-CEM leukemia
OVCAR-4 ovarian = tested on: OVCAR-4 ovarian
TK-10 renal = tested on: TK-10 renal
NCI-H522 lung = tested on: NCI-H522 lung
786-0 renal = tested on: 786-0 renal

## COc1cc2c(cc1OC)[Se]c1cc(OC)c(OC)cc1[Se]2
SW-620 colon
  GI50: > 100 µM
  TGI: > 100 µM
MOLT-4 leukemia
  TGI: > 100 µM
ACHN renal
  GI50: > 100 µM
  TGI: > 100 µM
LXFL 529 NSCLC
  GI50: > 100 µM
  TGI: > 100 µM
SK-MEL-5 melanoma
  GI50: > 100 µM
  TGI: > 100 µM
UO-31 renal
  GI50: > 100 µM
  TGI: > 100 µM
SNB-19 CNS
  GI50: > 100 µM
  TGI: > 100 µM
OVCAR-8 ovarian
  GI50: > 100 µM
  TGI: > 100 µM
U251 CNS
  GI50: > 100 µM
  TGI: > 100 µM
DLD-1 colon
  GI50: > 100 µM
  TGI: > 100 µM
SNB-78 CNS
  GI50: > 100 µM
  TGI: > 100 µM
M14 melanoma
  GI50: > 100 µM
  TGI: > 100 µM
SF-295 CNS
  TGI: > 100 µM
SK-MEL-28 melanoma
  GI50: > 100 µM
  TGI: > 100 µM
SNB-75 CNS
  TGI: > 100 µM
HOP-18 NSCLC
  TGI: > 100 µM
M19-MEL melanoma
  GI50: > 100 µM
  TGI: > 100 µM
HT29 colon
  GI50: 4.32 µM
  TGI: > 100 µM
XF 498 CNS
  GI50: > 100 µM
  TGI: > 100 µM
LOX IMVI melanoma
  TGI: > 100 µM
HOP-62 NSCLC
  GI50: > 100 µM
  TGI: > 100 µM
SF-539 CNS
  TGI: > 100 µM
UACC-62 melanoma
  GI50: > 100 µM
  TGI: > 100 µM
SK-OV-3 ovarian
  GI50: > 100 µM
  TGI: > 100 µM
DMS 273 small cell lung
  TGI: > 100 µM
KM12 colon
  GI50: 3.54 µM
  TGI: > 100 µM
RXF 393 renal
  TGI: > 100 µM
SN12C renal
  GI50: > 100 µM
  TGI: > 100 µM
IGROV1 ovarian
  GI50: > 100 µM
  TGI: > 100 µM
SK-MEL-2 melanoma
  GI50: > 100 µM
  TGI: > 100 µM
HCT-116 colon
  GI50: > 100 µM
  TGI: > 100 µM
NCI-H23 lung
  GI50: > 100 µM
  TGI: > 100 µM
A498 renal
  GI50: > 100 µM
  TGI: > 100 µM
K-562 leukemia
  GI50: 5.08 µM
  TGI: > 100 µM
HCT-15 colon
  TGI: > 100 µM
SF-268 CNS
  GI50: > 100 µM
  TGI: > 100 µM
MALME-3M melanoma
  GI50: > 100 µM
  TGI: > 100 µM
UACC-257 melanoma
  GI50: > 100 µM
  TGI: > 100 µM
HOP-92 NSCLC
  TGI: > 100 µM
CAKI-1 renal
  GI50: > 100 µM
  TGI: > 100 µM
OVCAR-3 ovarian
  GI50: > 100 µM
  TGI: > 100 µM
NCI-H460 lung
  GI50: > 100 µM
  TGI: > 100 µM
RPMI-8226 leukemia
  GI50: > 100 µM
  TGI: > 100 µM
A549 NSCLC
  GI50: > 100 µM
  TGI: > 100 µM
NCI-H226 lung
  GI50: > 100 µM
  TGI: > 100 µM
DMS 114 small cell lung
  GI50: 4.77 µM
  TGI: > 100 µM
CCRF-CEM leukemia
  GI50: > 100 µM
  TGI: > 100 µM
OVCAR-4 ovarian
  GI50: > 100 µM
  TGI: > 100 µM
TK-10 renal
  GI50: > 100 µM
  TGI: > 100 µM
NCI-H522 lung
  GI50: > 100 µM
  TGI: > 100 µM
786-0 renal
  GI50: > 100 µM
  TGI: > 100 µM

— PubChem BioAssay (NCI)
